The values below come from BindingDB's records for doi:10.1021/jm00006a008 (Glaxo Research Institute, 1995).

What is called IC50 is the concentration that gives 50% inhibition. The low end stands for greater potency in that assay, the high end for weaker potency in that assay.

The experiment in a line: Inhibition of bovine topoisomerase I, using cleavable complex assay.
`CCC1(O)C(=O)OCc2c1cc1n(c2=O)C/C(=C2\C(=O)N(C)c3ccccc32)C1=O` (configuration not stated) [4-Ethyl-4-hydroxy-7-[1-methyl-2-oxo-1,2-dihydro-indol-(3E)-ylidene]-1,4,7,8-tetrahydro-pyrano[3,4-f]indolizine-3,6,10-trione] had an IC50 above 100 µM. `CCC1(O)C(=O)OCc2c1cc1n(c2=O)C/C(=C2\C(=O)Nc3ccccc32)C1=O` (configuration not stated) [4-Ethyl-4-hydroxy-7-[2-oxo-1,2-dihydro-indol-(3E)-ylidene]-1,4,7,8-tetrahydro-pyrano[3,4-f]indolizine-3,6,10-trione] returned a half-inhibitory concentration (IC50) of 5.8 µM. Under `CCC1(O)C(=O)OCc2c1cc1n(c2=O)C/C(=C2\C(=O)Nc3c2cc(F)c(F)c3F)C1=O` (configuration not stated) [4-Ethyl-4-hydroxy-7-[5,6,7-trifluoro-2-oxo-1,2-dihydro-indol-(3E)-ylidene]-1,4,7,8-tetrahydro-pyrano[3,4-f]indolizine-3,6,10-trione] stands above 100 µM; under `CCC1(O)C(=O)OCc2c1cc1n(c2=O)C/C(=C2\C(=O)Nc3ccc(I)cc32)C1=O` (configuration not stated) [4-Ethyl-4-hydroxy-7-[5-iodo-2-oxo-1,2-dihydro-indol-(3E)-ylidene]-1,4,7,8-tetrahydro-pyrano[3,4-f]indolizine-3,6,10-trione], 32 µM. Under `CCC1(O)C(=O)OCc2c1cc1n(c2=O)C/C(=C2\C(=O)Nc3ccc([N+](=O)[O-])cc32)C1=O` (configuration not stated) [4-Ethyl-4-hydroxy-7-[5-nitro-2-oxo-1,2-dihydro-indol-(3E)-ylidene]-1,4,7,8-tetrahydro-pyrano[3,4-f]indolizine-3,6,10-trione] stands above 100 µM; under `CCC1(O)C(=O)OCc2c1cc1n(c2=O)C/C(=C2\C(=O)Nc3cc(OC)ccc32)C1=O` (configuration not stated) [4-Ethyl-4-hydroxy-7-[6-methoxy-2-oxo-1,2-dihydro-indol-(3E)-ylidene]-1,4,7,8-tetrahydro-pyrano[3,4-f]indolizine-3,6,10-trione], above 100 µM.

Take `CCC1(O)C(=O)OCc2c1cc1n(c2=O)C/C(=C2\C(=O)Nc3cc4c(cc32)OCCO4)C1=O` (configuration not stated) [4-Ethyl-4-hydroxy-7-[7-oxo-2,3,6,7-tetrahydro-[1,4]dioxino[2,3-f]indol-(8E)-ylidene]-1,4,7,8-tetrahydro-pyrano[3,4-f]indolizine-3,6,10-trione]: the IC50 was 29.6 µM. As for `CCC1(O)C(=O)OCc2c1cc1n(c2=O)C/C(=C2\C(=O)Nc3ccc(F)cc32)C1=O` (configuration not stated) [4-Ethyl-7-[5-fluoro-2-oxo-1,2-dihydro-indol-(3E)-ylidene]-4-hydroxy-1,4,7,8-tetrahydro-pyrano[3,4-f]indolizine-3,6,10-trione], the figure is 1.2 µM; as for `CCC1(O)C(=O)OCc2c1cc1n(c2=O)C/C(=C2\C(=O)Nc3c2ccc(F)c3C)C1=O` (configuration not stated) [4-Ethyl-7-[6-fluoro-7-methyl-2-oxo-1,2-dihydro-indol-(3E)-ylidene]-4-hydroxy-1,4,7,8-tetrahydro-pyrano[3,4-f]indolizine-3,6,10-trione], above 100 µM. Under `CCC1(O)C(=O)OCc2c1cc1n(c2=O)C/C(=C2\C(=O)Nc3cc(F)c(F)cc32)C1=O` (configuration not stated) [7-[5,6-Difluoro-2-oxo-1,2-dihydro-indol-(3E)-ylidene]-4-ethyl-4-hydroxy-1,4,7,8-tetrahydro-pyrano[3,4-f]indolizine-3,6,10-trione] stands 1.5 µM; under `CCC1(O)C(=O)OCc2c1cc1n(c2=O)C/C(=C2\C(=O)Nc3ccc(Cl)cc32)C1=O` (configuration not stated) [7-[5-Chloro-2-oxo-1,2-dihydro-indol-(3E)-ylidene]-4-ethyl-4-hydroxy-1,4,7,8-tetrahydro-pyrano[3,4-f]indolizine-3,6,10-trione], above 100 µM; under `CC[C@]1(O)C(=O)OCc2c1cc1n(c2=O)C/C(=C2\C(=O)Nc3ccccc32)C1=O` [(R)-4-Ethyl-4-hydroxy-7-[2-oxo-1,2-dihydro-indol-(3E)-ylidene]-1,4,7,8-tetrahydro-pyrano[3,4-f]indolizine-3,6,10-trione], 4 µM. As to `CC[C@]1(O)C(=O)OCc2c1cc1n(c2=O)C/C(=C2\C(=O)Nc3cc(OC(F)(F)F)ccc32)C1=O` [(R)-4-Ethyl-4-hydroxy-7-[2-oxo-6-trifluoromethoxy-1,2-dihydro-indol-(3E)-ylidene]-1,4,7,8-tetrahydro-pyrano[3,4-f]indolizine-3,6,10-trione], the IC50 was above 100 µM. In turn, `CC[C@]1(O)C(=O)OCc2c1cc1n(c2=O)C/C(=C2\C(=O)Nc3ccc(I)cc32)C1=O` [(R)-4-Ethyl-4-hydroxy-7-[5-iodo-2-oxo-1,2-dihydro-indol-(3E)-ylidene]-1,4,7,8-tetrahydro-pyrano[3,4-f]indolizine-3,6,10-trione] came in with an IC50 of 12.1 µM.

In turn, `CC[C@]1(O)C(=O)OCc2c1cc1n(c2=O)C/C(=C2\C(=O)Nc3ccc(C)cc32)C1=O` [(R)-4-Ethyl-4-hydroxy-7-[5-methyl-2-oxo-1,2-dihydro-indol-(3E)-ylidene]-1,4,7,8-tetrahydro-pyrano[3,4-f]indolizine-3,6,10-trione] registered an IC50 of 1.8 µM. As for `CC[C@]1(O)C(=O)OCc2c1cc1n(c2=O)C/C(=C2\C(=O)Nc3c2cc(C)cc3[N+](=O)[O-])C1=O` [(R)-4-Ethyl-4-hydroxy-7-[5-methyl-7-nitro-2-oxo-1,2-dihydro-indol-(3E)-ylidene]-1,4,7,8-tetrahydro-pyrano[3,4-f]indolizine-3,6,10-trione], the figure is above 100 µM; as for `CC[C@]1(O)C(=O)OCc2c1cc1n(c2=O)C/C(=C2\C(=O)Nc3cc(SC)ccc32)C1=O` [(R)-4-Ethyl-4-hydroxy-7-[6-methylsulfanyl-2-oxo-1,2-dihydro-indol-(3E)-ylidene]-1,4,7,8-tetrahydro-pyrano[3,4-f]indolizine-3,6,10-trione], above 100 µM; as for `CC[C@]1(O)C(=O)OCc2c1cc1n(c2=O)C/C(=C2\C(=O)Nc3c(C)cccc32)C1=O` [(R)-4-Ethyl-4-hydroxy-7-[7-methyl-2-oxo-1,2-dihydro-indol-(3E)-ylidene]-1,4,7,8-tetrahydro-pyrano[3,4-f]indolizine-3,6,10-trione], above 100 µM. Under `CC[C@]1(O)C(=O)OCc2c1cc1n(c2=O)C/C(=C2\C(=O)Nc3ccc(F)cc32)C1=O` [(R)-4-Ethyl-7-[5-fluoro-2-oxo-1,2-dihydro-indol-(3E)-ylidene]-4-hydroxy-1,4,7,8-tetrahydro-pyrano[3,4-f]indolizine-3,6,10-trione] stands 1.1 µM. Take `CC[C@]1(O)C(=O)OCc2c1cc1n(c2=O)C/C(=C2\C(=O)Nc3cc(F)c(F)cc32)C1=O` [(R)-7-[5,6-Difluoro-2-oxo-1,2-dihydro-indol-(3E)-ylidene]-4-ethyl-4-hydroxy-1,4,7,8-tetrahydro-pyrano[3,4-f]indolizine-3,6,10-trione]: the IC50 was found to be 1.3 µM. As for `CC[C@]1(O)C(=O)OCc2c1cc1n(c2=O)C/C(=C2\C(=O)Nc3ccc(Br)cc32)C1=O` [(R)-7-[5-Bromo-2-oxo-1,2-dihydro-indol-(3E)-ylidene]-4-ethyl-4-hydroxy-1,4,7,8-tetrahydro-pyrano[3,4-f]indolizine-3,6,10-trione], the IC50 is above 100 µM. Under `CC[C@]1(O)C(=O)OCc2c1cc1n(c2=O)C/C(=C2\C(=O)Nc3c(Cl)cccc32)C1=O` [(R)-7-[7-Chloro-2-oxo-1,2-dihydro-indol-(3E)-ylidene]-4-ethyl-4-hydroxy-1,4,7,8-tetrahydro-pyrano[3,4-f]indolizine-3,6,10-trione] stands above 100 µM.
